Experimental findings from ChEMBL document CHEMBL1135549 (J Med Chem, 2002) are described below.

One experiment addresses T1, Cannabinoid receptor 2 (Rattus norvegicus, UniProt Q9QZN9).
T1 sequence (Q9QZN9 whole entry): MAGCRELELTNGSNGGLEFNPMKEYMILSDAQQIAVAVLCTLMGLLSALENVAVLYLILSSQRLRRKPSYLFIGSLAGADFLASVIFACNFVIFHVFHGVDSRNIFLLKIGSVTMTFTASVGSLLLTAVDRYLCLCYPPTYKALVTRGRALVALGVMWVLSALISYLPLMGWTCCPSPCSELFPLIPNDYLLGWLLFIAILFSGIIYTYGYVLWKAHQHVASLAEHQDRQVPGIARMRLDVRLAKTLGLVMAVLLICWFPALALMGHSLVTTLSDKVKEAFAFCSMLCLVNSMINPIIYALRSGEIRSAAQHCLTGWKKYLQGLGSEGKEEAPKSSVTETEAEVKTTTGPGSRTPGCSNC
Description: Displacement of [3H]CP-55940 from rat forebrain membrane which expresses Cannabinoid receptor 2 in the presence of PMSF.

The next experiment addresses Cannabinoid receptor 1 (Rattus norvegicus, UniProt P20272). The experiment can be described thus: Displacement of [3H]CP-55940 from rat forebrain membrane which expresses Cannabinoid receptor 1 in the presence of PMSF.
The target in experiment [1] is T2, Fatty-acid amide hydrolase 1 (Homo sapiens, UniProt O00519).
T2 sequence (O00519 whole entry): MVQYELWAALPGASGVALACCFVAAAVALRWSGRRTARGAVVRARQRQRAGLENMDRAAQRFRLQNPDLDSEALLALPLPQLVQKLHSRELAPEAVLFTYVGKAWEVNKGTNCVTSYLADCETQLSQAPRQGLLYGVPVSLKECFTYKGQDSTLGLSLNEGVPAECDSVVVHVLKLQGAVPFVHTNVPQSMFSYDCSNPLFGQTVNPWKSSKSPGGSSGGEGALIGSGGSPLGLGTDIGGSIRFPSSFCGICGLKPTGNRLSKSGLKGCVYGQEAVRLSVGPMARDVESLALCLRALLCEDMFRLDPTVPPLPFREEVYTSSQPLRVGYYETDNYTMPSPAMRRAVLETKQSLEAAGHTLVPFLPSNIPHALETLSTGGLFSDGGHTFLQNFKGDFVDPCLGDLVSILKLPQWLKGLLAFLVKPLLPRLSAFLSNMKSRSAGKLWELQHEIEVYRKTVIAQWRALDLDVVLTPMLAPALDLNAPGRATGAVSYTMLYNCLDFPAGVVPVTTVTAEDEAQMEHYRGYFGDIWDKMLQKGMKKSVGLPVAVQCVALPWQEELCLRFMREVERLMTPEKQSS
Description: Inhibition of Fatty-acid amide hydrolase (FAAH) activity in human lymphoma U937 cell using [3H]AEA as substrate in the 0-25 uM conc. It counts as cell-based, U-937.

Experiment [2] can be described thus: Inhibition of N-arachidonoylethanolamine transporter (AEA) activity in human lymphoma U937 cell using [3H]AEA as substrate in the 0-1000 nM conc. The settings on record: u-937. It counts as cell-based.
In experiment [3] the target is Cannabinoid receptor (Rattus norvegicus) (UniProt Q9QZN9+P20272). The experiment can be described thus: Ratio of Ki at CB1 to Ki at CB2 receptors. Format: protein assay.
Chain of Cannabinoid receptor (Rattus norvegicus) (P20272 whole entry, looked up, one chain of several): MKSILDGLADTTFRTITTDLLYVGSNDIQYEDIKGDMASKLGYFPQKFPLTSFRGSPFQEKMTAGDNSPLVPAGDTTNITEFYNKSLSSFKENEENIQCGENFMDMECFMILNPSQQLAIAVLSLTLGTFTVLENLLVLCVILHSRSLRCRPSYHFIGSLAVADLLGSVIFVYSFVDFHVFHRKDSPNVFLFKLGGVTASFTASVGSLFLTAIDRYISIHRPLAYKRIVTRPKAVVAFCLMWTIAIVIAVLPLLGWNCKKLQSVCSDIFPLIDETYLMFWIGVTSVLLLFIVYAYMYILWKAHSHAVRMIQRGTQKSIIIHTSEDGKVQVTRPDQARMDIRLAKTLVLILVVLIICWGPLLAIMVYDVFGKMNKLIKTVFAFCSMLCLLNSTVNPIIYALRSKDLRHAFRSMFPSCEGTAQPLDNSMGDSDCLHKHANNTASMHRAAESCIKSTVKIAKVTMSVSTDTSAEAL

Chain of Cannabinoid receptor 1 (P20272 whole entry): as the sequence (P20272 whole entry, looked up, one chain of several) above

With `CCCCC[C@H](O)/C=C/C=C\C/C=C\C/C=C\CCCC(=O)OC[C@H](O)CO`, the Ki (in general, the dissociation constant of the complex between target and ligand, obtained from inhibition or displacement) is above 1000 nM on Cannabinoid receptor 2, above 1000 nM at Cannabinoid receptor 1, 5000 nM in experiment [1] and 7000 nM in experiment [2].

For `CCCCC/C=C\C=C\[C@@H](O)C/C=C\C/C=C\CCCC(=O)NCCO`, the Ki on Cannabinoid receptor 2 was above 1000 nM; at Cannabinoid receptor 1 it was above 1000 nM; in experiment [1] it was 570 nM; in experiment [2], above 10000 nM.

`CCCCC[C@@H](O)/C=C/C=C\C/C=C\C/C=C\CCCC(=O)NCCO`: the inhibitory constant (Ki) on Cannabinoid receptor 2 is above 1000 nM; on Cannabinoid receptor 1, 600 nM; in experiment [1] it was 630 nM; in experiment [2], above 10000 nM. Also, the Ratio in experiment [3] was below 0.6.

With `CCCCC[C@H](O)/C=C/C=C\C=C\[C@@H](O)C/C=C\CCCC(=O)NCCO`, the Ki at Cannabinoid receptor 2 was above 1000 nM; at Cannabinoid receptor 1, above 1000 nM; in experiment [1] it was 690 nM; in experiment [2], above 10000 nM.

Regarding `CCCCC[C@H](O)/C=C/C=C\C/C=C\C/C=C\CCCC(=O)OC[C@@H](O)CO`, the Ki on Cannabinoid receptor 2 is 550 nM; at Cannabinoid receptor 1 it was above 1000 nM; in experiment [1], 6000 nM; in experiment [2] it was 9000 nM.

As for `CCCCC/C=C\C/C=C\C/C=C\C/C=C\CCCC(=O)OC[C@H](O)CO`, the Ki at Cannabinoid receptor 2 is above 1000 nM; at Cannabinoid receptor 1 it was above 1000 nM; in experiment [1], 2500 nM; in experiment [2], 10000 nM.

`CCCCC[C@H](O)/C=C/C=C\CCCCCCCC(=O)NCCO`: the Ki on Cannabinoid receptor 2 was 600 nM; at Cannabinoid receptor 1, above 1000 nM; in experiment [1], 430 nM; in experiment [2] it was above 10000 nM. For the same molecule, the Ratio in experiment [3] was above 1.7.

Turning to `CCCCC[C@@H](O)/C=C/C=C\C/C=C\C=C\[C@H](O)CCCC(=O)NCCO`, the Ki is above 1000 nM at Cannabinoid receptor 2, above 1000 nM on Cannabinoid receptor 1, 1260 nM in experiment [1] and above 10000 nM in experiment [2].

For the molecule `CCCCC/C=C\C[C@@H](O)/C=C/C=C\C/C=C\CCCC(=O)NCCO`, the Ki on Cannabinoid receptor 2 was 500 nM; at Cannabinoid receptor 1, 150 nM; in experiment [1] it was 2900 nM; in experiment [2] it was above 10000 nM. The Ratio in experiment [3] was 0.3.

As to `CCCCCC(O)/C=C/C=C\C/C=C\C/C=C\CCCC(=O)NCCO` (mixture of isomers), the Ki at Cannabinoid receptor 2 is above 1000 nM; on Cannabinoid receptor 1, 680 nM; in experiment [1] it was 630 nM; in experiment [2], above 10000 nM. Besides, the Ratio in experiment [3] is above 0.7.

Take `CCCCC/C=C\C/C=C\C/C=C\C/C=C\CCCC(=O)NCCO` [ANANDAMIDE]: the Ki in experiment [1] and in experiment [2] was above 10000 nM in each case.

With `CCCCC/C=C\C=C\C(O)C/C=C\C/C=C\CCCC(=O)NCCO` (mixture of isomers), the Ki at Cannabinoid receptor 2 was above 1000 nM; on Cannabinoid receptor 1, above 1000 nM; in experiment [1] it was 690 nM; in experiment [2], above 10000 nM.

Consider `CCCCC/C=C\C/C=C\C/C=C\C/C=C\CCCC(=O)OC[C@@H](O)CO`, for which the Ki was above 1000 nM at Cannabinoid receptor 2, above 1000 nM on Cannabinoid receptor 1, 3000 nM in experiment [1] and above 10000 nM in experiment [2].

As to `CCCCC/C=C\C/C=C\C/C=C\C/C=C\CCCC(=O)OC(CO)CO` [2-ARACHIDONOYLGLYCEROL], the Ki worked out at 100 nM on Cannabinoid receptor 2, 5000 nM in experiment [1] and 3000 nM in experiment [2].
